In patent publication US20220370416A1, “COMPOUNDS AND METHODS FOR TARGETED DEGRADATION OF KRAS” (Arvinas Operations, Inc., priority 2020, published 2022):

Experiments:
HiBit-KRAS^G12C [1] = biological target: T1, HiBit-KRAS^G12C (Homo sapiens, UniProt P01116, G12C); assay: HiBit degradation assay in SW1573 HiBit-KRas^G12C cells; assay type: cell-based; design: expressed in transfected cells; host or cells: SW1573 (clone E6), modified pcDNA3.1 vector, TK promoter; conditions: 24 hours
Method in brief: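 SW1573 cells stably expressing N-terminally HiBit-tagged KRAS G12C, under the TK promoter, were treated 24 h at 37 °C with 10 μM to 20 nM compound in 0.1% or 0.5% DMSO. Residual HiBit luminescence normalised to DMSO and fitted with a 4-parameter model for DC50 and Dmax. Points with ≥50% viability loss (alamar blue) excluded.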

HiBit-KRAS^G12C [2] = biological target: T1, HiBit-KRAS^G12C; assay: HiBit degradation assay in MiaPaCa-2 HiBit-KRas^G12C cells; assay type: cell-based; conditions: 24 hours; for DC50: read-out: KRas^G12C-HiBiT (MiaPaCa; 0.5% DMSO) IC50
Method in brief: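 MiaPaCa-2 cells with CRISPR N-terminal HiBit knock-in on one endogenous KRAS^G12C allele, treated 24 hours at 37° C with compound titrated 10 μM to 20 nM (0.1% or 0.5% DMSO). Lytic HiBit luminescence normalized to DMSO, 4-parameter fit giving DC50 and Dmax; points cytotoxic to […] cells by alamar blue excluded.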

[3] = SW1573, SW1573 HiBit-KRas^G12C, 0.5% DMSO, read-out: KRas^G12C-HiBiT (SW1573; 0.5% DMSO) Dmax**
[4] = read-out: KRas^G12C-HiBiT (SW1573; 0.5% DMSO) IC50***, SW1573 HiBit-KRas^G12C, 0.5% DMSO
[5] = MIA PaCa-2, MiaPaCa-2 HiBit-KRas^G12C cells, 0.5% DMSO, maximum degradation, read-out: KRas^G12C-HiBiT (MiaPaCa; 0.5% DMSO) DMax
[6] = MiaPaCa-2 HiBit-KRas^G12C cells, 0.5% DMSO
[7] = SW1573, read-out: KRas^G12C-HiBiT (SW1573; 0.5% DMSO) Dmax**, SW1573 HiBit-KRas^G12C, 0.5% DMSO
[8] = SW1573, read-out: KRas^G12C-HiBit (SW1573; 0.1% DMSO) Dmax**, SW1573 HiBit-KRas^G12C, 0.1% DMSO
[9] = SW1573 HiBit-KRas^G12C, 0.1% DMSO, read-out: KRas^G12C-HIBit (SW1573; 0.1% DMSO) DC50*
[10] = MIA PaCa-2, read-out: KRas^G12C-HiBiT (MiaPaCa; 0.1% DMSO) DMax, MiaPaCa-2 HiBit-KRas^G12C cells, 0.1% DMSO, maximum degradation
[11] = MIA PaCa-2, read-out: KRas^G12C-HiBiT (MiaPaCa; 0.5% DMSO) DMax, MiaPaCa-2 HiBit-KRas^G12C cells, 0.5% DMSO, maximum degradation

T1 sequence (P01116 1-186 isoform P01116-2 G12C limits assumed): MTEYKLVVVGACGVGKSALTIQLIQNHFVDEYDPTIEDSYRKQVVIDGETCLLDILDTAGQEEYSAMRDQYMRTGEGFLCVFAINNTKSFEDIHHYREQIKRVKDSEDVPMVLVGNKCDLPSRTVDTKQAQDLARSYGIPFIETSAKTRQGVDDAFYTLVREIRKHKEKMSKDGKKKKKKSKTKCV

SMILES | Dmax (HiBit-KRAS^G12C [1]; [3]) [%] | DC50 (HiBit-KRAS^G12C [1]; [4]) [µM] | Dmax (HiBit-KRAS^G12C [2]; [5]) [%] | DC50 (HiBit-KRAS^G12C [2]; [6]) [µM] | KRas^G12C-HiBiT (SW1573; 0.5% DMSO) Dmax** (HiBit-KRAS^G12C [1]; SW1573 HiBit-KRas^G12C, 0.5% DMSO) | KRas^G12C-HiBiT (MiaPaCa; 0.5% DMSO) DMax (HiBit-KRAS^G12C [2]; MiaPaCa-2 HiBit-KRas^G12C cells, 0.5% DMSO, maximum degradation) | Dmax (HiBit-KRAS^G12C [1]; [7]) [%] | Dmax (HiBit-KRAS^G12C [1]; [8]) [%] | DC50 (HiBit-KRAS^G12C [1]; [9]) [µM] | Dmax (HiBit-KRAS^G12C [2]; [10]) [%] | Dmax (HiBit-KRAS^G12C [2]; [11]) [%]
C=CC(=O)N1CCN(c2nc(O[C@@H]3CCC[C@H]3N3CCC(COCC(=O)N[C@H](C(=O)N4C[C@H](O)C[C@H]4C(=O)N[C@@H](C)c4ccc(-c5scnc5C)cc4)C(C)(C)C)CC3)nc3c(F)c(-c4cc(O)cc5ccccc45)c(Cl)cc23)CC1 [Compound 13, (2S,4R)-1-[(2S)-2-[2-({1-[(1R,2R)-2-{[6-chloro-8-fluoro-7-(3-hydroxynaphthalen-1-yl)-4-[4-(prop-2-enoyl)piperazin-1-yl]quinazolin-2-yl]oxy}cyclopentyl]piperidin-4-yl}methoxy)acetamido]-3,3-dimethylbutanoyl]-4-hydroxy-N-[(1S)-1-[4-(4-methyl-1,3-thiazol-5-yl)phenyl]ethyl]pyrrolidine-2-carboxamide] |  |  |  |  |  |  | 35 to 70 | 35 to 70 | 0.1 to 1 | 35 to 70 | 35 to 70
C=C(F)C(=O)N1CCN(c2nc(OCCN3CCC(COc4cc([C@H](C(=O)N5C[C@H](O)C[C@H]5C(=O)N[C@@H](C)c5ccc(-c6scnc6C)cc5)C(C)C)on4)CC3)nc3c(F)c(-c4cc(O)cc5ccccc45)c(Cl)cc23)C[C@@H]1CC#N [Compound 168, (2S,4R)-1-[(2R)-2-[3-({1-[2-({6-chloro-4-[(3S)-3-(cyanomethyl)-4-(2-fluoroprop-2-enoyl)piperazin-1-yl]-8-fluoro-7-(3-hydroxynaphthalen-1-yl)quinazolin-2-yl}oxy)ethyl]piperidin-4-yl}methoxy)-1,2-oxazol-5-yl]-3-methylbutanoyl]-4-hydroxy-N-[(1S)-1-[4-(4-methyl-1,3-thiazol-5-yl)phenyl]ethyl]pyrrolidine-2-carboxamide] |  | 0.1 to 1 |  | 0.1 to 1 | A (A ≥ 70) | A (A ≥ 70) |  |  |  |  | 
C=CC(=O)N1CCN(c2nc(OCCN3CCC(F)(COCC(=O)N[C@H](C(=O)N4C[C@H](O)C[C@H]4C(=O)N[C@@H](C)c4ccc(-c5scnc5C)cc4)C(C)(C)C)CC3)nc3c(F)c(-c4cc(O)cc5ccccc45)c(Cl)cc23)C[C@@H]1CC#N [Compound 150, (2S,4R)-1-[(2S)-2-[2-({1-[2-({6-chloro-4-[(3S)-3-(cyanomethyl)-4-(prop-2-enoyl)piperazin-1-yl]-8-fluoro-7-(3-hydroxynaphthalen-1-yl)quinazolin-2-yl}oxy)ethyl]-4-fluoropiperidin-4-yl}methoxy)acctamido]-3,3-dimethylbutanoyl]-4-hydroxy-N-[(1S)-1-[4-(4-methyl-1,3-thiazol-5-yl)phenyl]ethyl]pyrrolidine-2-carboxamide] | > 70 | 0.1 to 1 | > 70 | > 1 |  |  |  |  |  |  | 
C=C(F)C(=O)N1CCN(c2nc(OCCN3CCC(F)(COc4cc([C@@H](C(=O)N5C[C@H](O)C[C@H]5C(=O)N[C@@H](C)c5ccc(-c6ccnn6C)cc5)C(C)C)on4)CC3)nc3c(F)c(-c4cc(O)cc5ccccc45)c(Cl)cc23)C[C@@H]1CC#N (atropisomer, axis not shown) [Compound 118, (2S,4R)-1-[(2S)-2-[3-({1-[2-({6-chloro-4-[(3S)-3-(cyanomethyl)-4-(2-fluoroprop-2-enoyl)piperazin-1-yl]-8-fluoro-7-(3-hydroxynaphthalen-1-yl)quinazolin-2-yl}oxy)ethyl]-4-fluoropiperidin-4-yl}methoxy)-1,2-oxazol-5-yl]-3-methylbutanoyl]-4-hydroxy-N-[(1S)-1-[4-(1-methyl-1H-pyrazol-5-yl)phenyl]ethyl]pyrrolidine-2-carboxamide] |  | 0.1 to 1 |  | > 1 |  |  |  |  |  |  | 
C=CC(=O)N1CCN(c2nc(OCCN3CC[C@@H](COCC(=O)N[C@H](C(=O)N4C[C@H](O)C[C@H]4C(=O)N[C@@H](C)c4ccc(-c5scnc5C)cc4)C(C)(C)C)C3)nc3c(F)c(-c4cc(O)cc5ccccc45)c(Cl)cc23)C[C@@H]1CC#N [Compound 140, (2S,4R)-1-[(2S)-2-(2-{[(3R)-1-[2-({6-chloro-4-[(3S)-3-(cyanomethyl)-4-(prop-2-enoyl)piperazin-1-yl]-8-fluoro-7-(3-hydroxynaphthalen-1-yl)quinazolin-2-yl}oxy)ethyl]pyrrolidin-3-yl]methoxy}acetamido)-3,3-dimethylbutanoyl]-4-hydroxy-N-[(1S)-1-[4-(4-methyl-1,3-thiazol-5-yl)phenyl]ethyl]pyrrolidine-2-carboxamide] | 35 to 70 | 0.1 to 1 | 35 to 70 | > 1 |  |  |  |  |  |  | 
C=CC(=O)N1CCN(c2nc(O[C@H]3CCC[C@@H]3N3CCC(COCC(=O)N[C@H](C(=O)N4C[C@H](O)C[C@H]4C(=O)N[C@@H](C)c4ccc(-c5scnc5C)cc4)C(C)(C)C)CC3)nc3c(F)c(-c4cc(O)cc5ccccc45)c(Cl)cc23)CC1 [Compound 12, (2S,4R)-1-[(2S)-2-[2-({1-[(1S,2S)-2-{[6-chloro-8-fluoro-7-(3-hydroxynaphthalen-1-yl)-4-[4-(prop-2-enoyl)piperazin-1-yl]quinazolin-2-yl]oxy}cyclopentyl]piperidin-4-yl}methoxy)acetamido]-3,3-dimethylbutanoyl]-4-hydroxy-N-[(1S)-1-[4-(4-methyl-1,3-thiazol-5-yl)phenyl]ethyl]pyrrolidine-2-carboxamide] |  |  |  |  |  |  | 35 to 70 | 35 to 70 | 0.1 to 1 | < 35 | < 35

The next lines start with results.

Dmax (HiBit-KRAS^G12C [1]; [3]) [%] | DC50 (HiBit-KRAS^G12C [1]; [4]) [µM] | Dmax (HiBit-KRAS^G12C [2]; [5]) [%] | DC50 (HiBit-KRAS^G12C [2]; [6]) [µM] | KRas^G12C-HiBiT (SW1573; 0.5% DMSO) Dmax** (HiBit-KRAS^G12C [1]; SW1573 HiBit-KRas^G12C, 0.5% DMSO) | KRas^G12C-HiBiT (MiaPaCa; 0.5% DMSO) DMax (HiBit-KRAS^G12C [2]; MiaPaCa-2 HiBit-KRas^G12C cells, 0.5% DMSO, maximum degradation) | SMILES | Dmax (HiBit-KRAS^G12C [1]; [7]) [%] | Dmax (HiBit-KRAS^G12C [1]; [8]) [%] | DC50 (HiBit-KRAS^G12C [1]; [9]) [µM] | Dmax (HiBit-KRAS^G12C [2]; [10]) [%] | Dmax (HiBit-KRAS^G12C [2]; [11]) [%]
> 70 | < 0.1 | > 70 | 0.1 to 1 |  |  | C=C(F)C(=O)N1CCN(c2nc(OCCN3CCC(COc4cc([C@H](C(=O)N5C[C@H](O)C[C@H]5C(=O)N[C@@H](C)c5ccc(-c6ccnn6C)cc5)C(C)C)on4)CC3)nc3c(F)c(-c4cc(O)cc5ccccc45)c(Cl)cc23)C[C@@H]1CC#N (atropisomer, axis not shown) [Compound 141, (2S,4R)-1-[(2R)-2-[3-({1-[2-({6-chloro-4-[(3S)-3-(cyanomethyl)-4-(2-fluoroprop-2-enoyl)piperazin-1-yl]-8-fluoro-7-(3-hydroxynaphthalen-1-yl)quinazolin-2-yl}oxy)ethyl]-piperidin-4-yl}methoxy)-1,2-oxazol-5-yl]-3-methylbutanoyl]-4-hydroxy-N-[(1S)-1-[4-(1-methyl-1H-pyrazol-5-yl)phenyl]ethyl]pyrrolidine-2-carboxamide] |  |  |  |  | 
< 35 | 0.1 to 1 | < 35 | 0.1 to 1 |  |  | C=C(F)C(=O)N1CCN(c2nc(O[C@H](C)CN3CCC(COc4cc([C@H](C(=O)N5C[C@H](O)C[C@H]5C(=O)N[C@@H](C)c5ccc(-c6scnc6C)cc5)C(C)C)on4)CC3)nc3c(F)c(-c4cc(O)cc5ccccc45)c(Cl)cc23)C[C@@H]1CC#N [Compound 155, (2S,4R)-1-[(2R)-2-[3-({1-[(2R)-2-({6-chloro-4-[(3S)-3-(cyanomethyl)-4-(2-fluoroprop-2-enoyl)piperazin-1-yl]-8-fluoro-7-(3-hydroxynaphthalen-1-yl)quinazolin-2-yl}oxy)propyl]piperidin-4-yl}methoxy)-1,2-oxazol-5-yl]-3-methylbutanoyl]-4-hydroxy-N-[(1S)-1-[4-(4-methyl-1,3-thiazol-5-yl)phenyl]ethyl]pyrrolidine-2-carboxamide] |  |  |  |  | 
> 70 | 0.1 to 1 | 35 to 70 | 0.1 to 1 |  |  | C=C(F)C(=O)N1CCN(c2nc(OCCN3CCC(OCCOCC(=O)N[C@H](C(=O)N4C[C@H](O)C[C@H]4C(=O)N[C@@H](C)c4ccc(-c5scnc5C)cc4)C(C)(C)C)CC3)nc3c(F)c(-c4cc(O)cc5ccccc45)c(Cl)cc23)C[C@@H]1CC#N [Compound 170, (2S,4R)-1-[(2S)-2-{2-[2-({1-[2-({6-chloro-4-[(3S)-3-(cyanomethyl)-4-(2-fluoroprop-2-enoyl)piperazin-1-yl]-8-fluoro-7-(3-hydroxynaphthalen-1-yl)quinazolin-2-yl}oxy)ethyl]piperidin-4-yl}oxy)ethoxy]acetamido}-3,3-dimethylbutanoyl]-4-hydroxy-N-[(1S)-1-[4-(4-methyl-1,3-thiazol-5-yl)phenyl]ethyl]pyrrolidine-2-carboxamide] |  |  |  |  | 
